These results are taken from article PMC12505902, “Inhibitors of trehalose-6-phosphate synthase activity in fungal pathogens compromise thermal tolerance pathways” (mBio, 2025).

Common to all, as to type: cell-based
In one test the test system is C. deneoformans. The test is described as follows: Zone of inhibition assay. The protocol:
To test this hypothesis, we performed zone of inhibition studies in the C. deneoformans background (Fig. S8A).
123 hours. All dose- response assays were performed in biological triplicate with a minimum of three
124 technical replicates. Growth, as determined by a reading of absorbance at 600 nm, was
125 normalized to untreated controls and was corrected for the absorbance of 4456dh in the YPD
(§1) 126 medium. Growth was plotted as a heat map using Excel.
(§2) 127 Wild-t y pe C. neoformans strains H99, wild-type C. deneoformans JEC21 and wild- t y pe C. gattii
(§3) 128 R265 were cultured overnight in YPD (yeast-peptone- dextrose) medium at 30 °C. Growth of the
(§4) 129 overnight cultures was quantified by measuring the OD600 and corrected for the background
(§5) 130 absorbance of the medium. Antifungal potency for 4456dh was assessed by minimum inhibitory
131 concentration (MIC) dose-response assays performed under standard Clinical and Lab Standards […]
(§6) 137 replicates. Growth, as determined by a reading of absorbance at 600 nm, was normalized to
(§7) 138 untreated controls and was corrected for the absorbance of 4456dh in the YPD medium. […]
(§8) 139 minimum inhibitory concentration causing 80% growth reduction, or MIC80, was determined based […]
149 mM 4456dh. The OD600 was determined followed by dilution of overnight cultures to an equivalent […]
(§9) 157 Optical density (OD600) was determined with an Infinite PRO plate reader ( Tecan). […]

Another test relates to C. neoformans (H99). In words: MIC dose-response assay in YPD. Particulars: Cryptococcus neoformans. The protocol:
(§10) Fig 4 4456dh inhibits the growth of Candida and Cryptococcus species. Two-fold dose response assays were performed against (A) C. albicans at 42°C and C. auris at 39°C, (B) C. glabrata at 42°C, and (C) C. neoformans, C. deneoformans, and C. gattii at 37°C. 4456dh was administered at the concentrations indicated. Cultures were grown in YPD at the listed temperatures for 48 hours for Candida species and 72 hours for Cryptococcus species. Experimental temperatures reflect the temperatures at which the fungi experience heat stress. Left: relative growth of treated samples was calculated by averaging technical triplicates and normalizing the OD600 of each treated well to the average OD600 of the untreated WT controls, after the absorbance due to the compound was subtracted. The MIC80 values, calculated based on the OD600 values, are indicated in the white text on each heat map. Right: representative spot assays show the ability of cells to grow after exposure to 4456dh and indicate fungicidal activity of 4456dh. TEXT PRINTED IN THE PICTURE: (A) 4456dh: C. albicans 42 °C: 13 mM; C. auris 39 °C: 7 mM | (B) 4456dh: C. glabrata 42 °C: 7.8 μM | (C) 4456dh: C. neoformans 37 °C: 7 mM; C. deneoformans 37 °C: 3 mM; C. gattii 37 °C: 7 mM DOUBTS OF THE COPYIST ABOUT THIS PICTURE: 4456dh, all panels: the picture prints no measure name with the white values on the heat maps, so each value is given only with its organism and temperature
(§11) We next tested the activity of 4456dh on Cryptococcus species at 37°C.
(§12) 123 hours. […]
as §1, §2, §3, §4, §5
(§13) 131 concentration (MIC) dose-response assays performed under standard Clinical and Lab Standards
(§14) 132 Institute (CLSI) conditions. A volume of 125 µL from each cell suspension was dispensed into the
(§15) 133 wells of 96-well flat-bottom microtiter plates (Corning). An additional 25 µL of 4456dh from a series
(§16) 134 of dilutions from the 157 mM stock solution prepared in water was added to each well. Following […]
as §6, §7, §8, §9

For a further test, the system named is C. gattii (R265). In words: MIC dose-response assay in YPD. To be noted: Cryptococcus gattii. The protocol: as §10, §11, §12, §1, §2, §3, §4, §5, §13, §14, §15, §16, §6, §7, §8, §9
Setting [1] is: Supplemental Table 5, This publication.

Regarding `Cn1cc(-c2csc(NC(=O)Cc3ccccn3)n2)cn1` [Compound 4456dh], the zone of inhibition result is on record as “diffuse yet visible zone of inhibition” with C. deneoformans (C. deneoformans tps1Δ cells, 30°C) and “distinct zone of inhibition” in the test with C. deneoformans (C. deneoformans wild-type (JEC21, JEC20), 37°C). The MIC80 (usually the lowest concentration that inhibits either 80% of growth or 80% of the strains tested, depending on the study) in the test with C. neoformans (H99) (37°C, YPD, 72 hours) stood at 7 mM; against C. neoformans (H99) (setting [1]), 2780 µg/mL; with C. gattii (R265) (37°C, YPD, 72 hours), 7 mM; against C. gattii (R265) (setting [1]) it was 2780 µg/mL.
